pIC50: −log10 of the molar value. Counter-ions that a name gives are not always drawn.
test system: LP-1 cell line; experiment: Cell-based pERK ELISA method, LP-1 cells; settings: Homo sapiens, LP-1, read-out: IC50 less than 1 μM or at least 50% inhibition at a concentration of 1 μM, LP-1 pERK ELISA
Experimental: LP-1 or JIM-1 multiple myeloma cells were seeded in 96 well plates at 1×10^6 cells/ml in 200 ul per well in serum free media. […] Cells were incubated for 16 h at 37° C. prior to the addition of a test compound for 30 minutes. Test compounds were administered at a 0.1% final DMSO concentration. […] ELISA plates and standards were prepared according o the standard DuoSet protocols and the relative amounts of pERK to total ERK in each sample calculated according to the standard curve.
In particular, compounds of the invention were tested against the LP-1 cell line (DSMZ no.: ACC 41) derived from human multiple myeloma.

Row | SMILES | pIC50
1 | COc1cc(NC(C)=O)cc(-c2cnc3cc(-c4cccc(CN5CCOCC5)c4)ccn23)c1 [Example 78, N-{3-Methoxy-5-[7-(3-morpholin-4-ylmethyl-phenyl)-imidazo[1,2-a]pyridin-3-yl]-phenyl}-acetamide] | > 6.00
2 | CCNC(=O)Nc1cccc(-c2cnc3cc(-c4cccc(C(=O)N5CCN(C)CC5)c4)ccn23)c1 [Example 79, 1-Ethyl-3-(3-{7-[3-(4-methyl-piperazine-1-carbonyl)-phenyl]-imidazo[1,2-a]pyridin-3-yl}-phenyl)-urea] | > 6.00
3 | CCNC(=O)Nc1cccc(-c2cnc3cc(-c4ccc(N(C)C)nc4)ccn23)c1 [Example 80, 1-{3-[7-(6-Dimethylamino-pyridin-3-yl)-imidazo[1,2-a]pyridin-3-yl]-phenyl}-3-ethyl-urea formate salt] | > 6.00
4 | CCNC(=O)Nc1cccc(-c2cnc3cc(-c4ccc(C(=O)N5CCN(C)CC5)cc4)ccn23)c1 [Example 81, 1-Ethyl-3-(3-{7-[4-(4-methyl-piperazine-1-carbonyl)-phenyl]-imidazo[1,2-a]pyridin-3-yl}-phenyl)-urea] | > 6.00
5 | CCNC(=O)Nc1cccc(-c2cnc3cc(-c4ccc(CN5CCC5)cc4)ccn23)c1 [Example 82, 1-{3-[7-(4-Azetidin-1-ylmethyl-phenyl)-imidazo[1,2-a]pyridin-3-yl]-phenyl}-3-ethyl-urea] | > 6.00
6 | CCNC(=O)Nc1cccc(-c2cnc3cc(-c4cccc(OCCOC)c4)ccn23)c1 [Example 83, 1-Ethyl-3-(3-{7-[3-(2-methoxy-ethoxy)-phenyl]-imidazo[1,2-a]pyridin-3-yl}-phenyl)-urea] | > 6.00
7 | CCNC(=O)Nc1cccc(-c2cnc3cc(-c4cnn(C)c4)ccn23)c1 [Example 94, 1-Ethyl-3-{3-[7-(1-methyl-1H-pyrazol-4-yl)-imidazo[1,2-a]pyridin-3-yl]-phenyl}-urea] | > 6.00
8 | CCNC(=O)Nc1cccc(-c2cnc3cc(-c4ccc(=O)n(C)c4)ccn23)c1 [Example 95, 1-Ethyl-3-{3-[7-(1-methyl-6-oxo-1,6-dihydro-pyridin-3-yl)-imidazo[1,2-a]pyridin-3-yl]-phenyl}-urea] | > 6.00
9 | CC(=O)Nc1cccc(-c2cnc3ccc(-c4csc5ccccc45)cn23)c1 [Example 103, N-[3-(6-Benzo[b]thiophen-3-yl-imidazo[1,2-a]pyridin-3-yl)-phenyl]-acetamide] | > 6.00
10 | CC(=O)Nc1cccc(-c2cnc3ccc(-c4ccoc4)cn23)c1 [Example 104, N-[3-(6-Furan-3-yl-imidazo[1,2-a]pyridin-3-yl)-phenyl]-acetamide] | > 6.00
11 | O=C(NCC(F)(F)F)Nc1cccc(-c2cnc3cc(N4CCOCC4)ccn23)c1 [Example 108, 1-[3-(7-Morpholin-4-yl-imidazo[1,2-a]pyridin-3-yl)-phenyl]-3-(2,2,2-trifluoro-ethyl)-urea hydrochloride salt] | > 6.00
12 | CCNC(=O)Nc1cccc(-c2cnc3cc(-c4ccc(NCCN5CCOCC5)nc4)ccn23)c1 [Example 109, 1-Ethyl-3-(3-{7-[6-(2-morpholin-4-yl-ethylamino)-pyridin-3-yl]-imidazo[1,2-a]pyridin-3-yl}-phenyl)-urea hydro-chloride salt] | > 6.00
13 | CCNC(=O)Nc1cccc(-c2cnn3cc(-c4ccc(F)cc4)cnc23)c1 [Example 111, 1-Ethyl-3-{3-[6-(4-fluoro-phenyl)-pyrazolo[1,5-a]pyrimidin-3-yl]-phenyl}-urea] | > 6.00
14 | Nc1ccc(-c2cnc3c(-c4cccc(NC(=O)NCC(F)(F)F)c4)cnn3c2)cn1 [Example 113, 1-{3-[6-(6-Amino-pyridin-3-yl)-pyrazolo[1,5-a]pyrimidin-3-yl]-phenyl}-3-(2,2,2-trifluoro-ethyl)-urea hydrochloride salt] | > 6.00
15 | CCNC(=O)Nc1cccc(-c2cnn3cc(-c4ccc(N)nc4)cnc23)c1 [Example 114, 1-{3-[6-(6-Amino-pyridin-3-yl)-pyrazolo[1,5-a]pyrimidin-3-yl]-phenyl}-3-ethyl-urea hydrochloride salt] | > 6.00
16 | CCNC(=O)Nc1cccc(-c2cnc3cc(-c4ccsc4)ccn23)c1 [Example 115, 1-Ethyl-3-[3-(7-thiophen-3-yl-imidazo[1,2-a]pyridine-3-yl)-phenyl]-urea formate salt] | > 6.00
17 | O=C(NCC(F)(F)F)Nc1cccc(-c2cnn3cc(-c4ccc(F)cc4)cnc23)c1 [Example 123, 1-{3-[6-(4-Fluoro-phenyl)-pyrazolo[1,5-a]pyrimidin-3-yl]-phenyl}-3-(2,2,2-trifluoro-ethyl)-urea] | > 6.00
18 | Cn1cc(-c2cnc3c(-c4cccc(NC(=O)NCC(F)(F)F)c4)cnn3c2)cn1 [Example 127, 1-{3-[6-(1-Methyl-1H-pyrazol-4-yl)-pyrazolo[1,5-a]pyrimidin-3-yl]-phenyl}-3-(2,2,2-trifluoro-ethyl)-urea] | > 6.00
19 | Cn1cc(-c2ccn3c(-c4cccc(NC(=O)NCC(F)(F)F)c4)cnc3c2)cn1 [Example 128, 1-{3-[7-(1-Methyl-1H-pyrazol-4-yl)-imidazo[1,2-a]pyridin-3-yl]-phenyl}-3-(2,2,2-trifluoro-ethyl)-urea formate] | > 6.00
20 | O=C(NCCF)Nc1cccc(-c2cnc3cc(-c4ccc(F)cc4)ccn23)c1 [Example 134, 1-(2-Fluoro-ethyl)-3-{3-[7-(4-fluoro-phenyl)-imidazo[1,2-a]pyridin-3-yl]-phenyl}-urea Hydrochloride] | > 6.00
21 | CCNC(=O)Nc1cccc(-c2cnn3cc(-c4cnn(C)c4)cnc23)c1 [Example 135, 1-Ethyl-3-{3-[6-(1-methyl-1H-pyrazol-4-yl)-pyrazolo[1,5-a]pyrimidin-3-yl]-phenyl}-urea] | > 6.00
22 | O=C(NCCF)Nc1cccc(-c2cnn3cc(-c4ccc(F)cc4)cnc23)c1 [Example 140, 1-(2-Fluoro-ethyl)-3-{3-[6-(4-fluoro-phenyl)-pyrazolo[1,5-a]pyrimidin-3-yl]-phenyl}-urea] | > 6.00
23 | O=C(NCC(F)(F)F)Nc1cccc(-c2cnc3cc(-c4ccc5c(c4)OCO5)ccn23)c1 [Example 141, Hydrochloride] | > 6.00
24 | COc1cc(-c2ccn3c(-c4cccc(NC(=O)NCC(F)(F)F)c4)cnc3c2)ccc1F [Example 142, 1-{3-[7-(4-Fluoro-3-methoxy-phenyl)-imidazo[1,2-a]pyridin-3-yl]-phenyl}-3-(2,2,2-trifluoro-ethyl)-urea Hydrochloride] | > 6.00
25 | O=C(NCC(F)(F)F)Nc1cccc(-c2cnc3cc(-c4cccc(F)c4)ccn23)c1 [Example 143, 1-{3-[7-(3-Fluoro-phenyl)-imidazo[1,2-a]pyridin-3-yl]-phenyl}-3-(2,2,2-trifluoro-ethyl)-urea Hydrochloride] | > 6.00
26 | O=C(NCC(F)(F)F)Nc1cccc(-c2cnc3cc(-c4ccccc4)ccn23)c1 [Example 149, 1-[3-(7-Phenyl-imidazo[1,2-a]pyridin-3-yl)-phenyl]-3-(2,2,2-trifluoro-ethyl)-urea Hydrochloride] | > 6.00
27 | O=C(NCC(F)(F)F)Nc1cccc(-c2cnc3cc(-c4cccc(C(=O)N5CCOCC5)c4)ccn23)c1 [Example 150, 1-(3-{7-[3-(Morpholine-4-carbonyl)-phenyl]-imidazo[1,2-a]pyridin-3-yl}-phenyl)-3-(2,2,2-trifluoro-ethyl)-urea Hydrochloride] | > 6.00

Reference: patent US8895745B2, “Bicyclic heterocyclic compounds as FGFR inhibitors” (Astex Therapeutics Limited, priority 2006, dated 2014)
